According to patent US7816371B2, “Bicycloheteroaryl compounds as P2X7 modulators and uses thereof” (Renovis, Inc., priority 2006, dated 2010):

Legend:
[1] = target: T1, P2X7 receptor (Homo sapiens, UniProt Q99572); experiment: IL-1β release assay in differentiated THP-1 cells stimulated with BzATP (Example 9); % inhibition and IC50; format: cell-based; details: THP-1 cells differentiated with LPS and IFN-γ, 30 min pretreatment, BzATP 250 uM, IL-1β by ELISA
T1 construct: host or cells: THP-1 cells differentiated with LPS and IFN-γ
T1 sequence (Q99572 1-595): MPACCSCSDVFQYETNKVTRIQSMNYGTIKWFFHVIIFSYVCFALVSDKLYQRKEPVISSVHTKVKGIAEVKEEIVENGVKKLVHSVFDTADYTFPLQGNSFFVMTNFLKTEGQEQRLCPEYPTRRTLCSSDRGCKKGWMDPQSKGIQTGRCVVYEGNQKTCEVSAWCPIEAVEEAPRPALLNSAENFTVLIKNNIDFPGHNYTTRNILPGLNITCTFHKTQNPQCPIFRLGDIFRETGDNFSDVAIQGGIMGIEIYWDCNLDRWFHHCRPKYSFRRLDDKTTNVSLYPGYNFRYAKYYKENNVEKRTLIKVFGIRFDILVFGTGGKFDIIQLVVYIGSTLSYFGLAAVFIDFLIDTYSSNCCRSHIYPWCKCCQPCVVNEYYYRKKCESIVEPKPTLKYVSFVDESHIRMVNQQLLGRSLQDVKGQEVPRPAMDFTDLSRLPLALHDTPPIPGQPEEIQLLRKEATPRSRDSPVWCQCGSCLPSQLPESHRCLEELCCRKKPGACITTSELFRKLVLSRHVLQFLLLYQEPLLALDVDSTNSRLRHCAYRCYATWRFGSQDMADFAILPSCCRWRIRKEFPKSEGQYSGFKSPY
Outline: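 Differentiated THP-1 cells pretreated 30 min with compound in RPMI before BzATP stimulation. Supernatant IL-1β measured by ELISA. Percent inhibition derived from background-adjusted IL-1β of treated versus untreated cells.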

[2] = Pharmacokinetic evaluation following intravenous and oral administration in rats (oral bioavailability); format: in vivo, Male Sprague-Dawley rats; details: PO 1 to 5 mg/kg vs IV 1 mg/kg, AUCinf normalized to dose
Description: Male Sprague-Dawley rats are acclimatized for at least 24 hours prior to experiment initiation. […] During the first 3 hours of experimentation, the animals receive only water ad libitum. At least three animals each are tested for intravenous and oral dosage. For intravenous formulation, compounds were dissolved (0.25 to 1 mg/mL) in a mixture of 3% dimethyl sulfoxide, 40% PEG 400 and the rest percentage of 40% Captisol in water (w/v). The animals are weighed before dosing. The determined body weight is used to calculate the dose volume for each animal.
PO rats are typically dosed through oral gavage following the same dose volume formula as IV to achieve a dose level of 1 to 5 mg/kg. […] About 250 uL of blood is obtained at each time point from the animal. Equal volumes of 0.9% normal saline are replaced to prevent dehydration. The whole blood samples are maintained on ice until centrifugation. Blood samples are then centrifuged at 14,000 rpm for 10 minutes at 4° C. and the upper plasma layer transferred into a clean vial and stored at −80° C. The resulting plasma samples are then analyzed by liquid chromatography-tandem mass spectrometry. Following the measurement of plasma samples and dosing solutions, plasma concentration-time curve is plotted. […] The % F is reported as the mean % F of all animals dosed orally with the compound of the invention at the specified level (see Table 4 below).

[3] = Determination of aqueous (kinetic) solubility; format: physicochemical; details: buffer pH 7.4, room temperature
Description: The mixture was vortexed for 1 hour and equilibrated overnight at room temperature. The mixture was filtered through a saturated filter and the filtrate was analyzed by LC/MS/MS.

IC50 [1] [nM] | Oral Bioavailability F (%) [2] | solubility [3] [µM] | Structure (SMILES)
> 1000 |  |  | O=C(Cc1cccc(C(F)(F)F)c1F)Nc1c(NCCO)ccc2c(=O)n(CCO)ccc12 [Compound 385, 2-(2-Fluoro-3-trifluoromethyl-phenyl)-N-[2-(2-hydroxy-ethyl)-6-(2-hydroxy-ethylamino)-1-oxo-1,2-dihydro-isoquinolin-5-yl]-acetamide]
 | ++ (26-50% F) |  | Cc1ccc2c(=O)n([C@H](C)CO)ccc2c1NC(=O)Cc1cccc(C(F)(F)F)c1F [Compound 395]
1.44 |  | > 75 | Cc1ccc2c(c1NC(=O)Cc1ccc(C(F)(F)F)c(F)c1)CCN([C@H](C)CO)C2=O [Compound 401, N-[6-Methyl-2-((R)-2-hydroxy-1-methyl-ethyl)-1-oxo-1,2,3,4-tetrahydro-isoquinolin-5-yl]-2-(3-fluoro-4-trifluoromethyl-phenyl)-acetamide]

The next lines start with the compound.

Structure (SMILES) | IC50 [1] [nM] | Oral Bioavailability F (%) [2] | solubility [3] [µM]
O=C(Cc1ccc(F)c(C(F)(F)F)c1)Nc1c(Cl)ccc2c(=O)n(CCO)ccc12 [Compound 386, N-[6-Chloro-2-(2-hydroxy-ethyl)-1-oxo-1,2-dihydro-isoquinolin-5-yl]-2-(4-fluoro-3-trifluoromethyl-phenyl)-acetamide] | 5.45 |  | 
Cc1ccc2c(=O)n([C@H](C)CO)ccc2c1NC(=O)Cc1ccc(F)c(C(F)(F)F)c1 [Compound 394] | 0.74 |  | 
Cc1ccc2c(=O)n([C@H](C)CO)ccc2c1NC(=O)Cc1ccc(C(F)(F)F)cc1 [Compound 397] | 5.54 |  | 
